# Test results as given in ChEMBL document CHEMBL3739348, “Novel pyrrole derivatives as selective CHK1 inhibitors: design, regioselective synthesis and molecular modeling” (Medchemcomm, 2015).
# How the values were obtained:
# [1] = target: Tyrosine-protein kinase ABL1 (Homo sapiens) (UniProt P00519); assay: Inhibition of ABL (unknown origin) at 30 uM by microfluidic assay relative to control
# [2] = target: Serine/threonine-protein kinase Chk2 (Homo sapiens) (UniProt O96017); assay: Inhibition of CHK2 (unknown origin) at 30 uM by microfluidic assay relative to control
# [3] = target: Mitogen-activated protein kinase 3 (Homo sapiens) (UniProt P27361); assay: Inhibition of Erk1 (unknown origin) at 30 uM by microfluidic assay relative to control
# [4] = target: Casein kinase I isoform delta (Homo sapiens) (UniProt P48730); assay: Inhibition of CK1d (unknown origin) at 30 uM by microfluidic assay relative to control
# Chain of Casein kinase I isoform delta (Homo sapiens) (P48730 whole entry, looked up, canonical isoform): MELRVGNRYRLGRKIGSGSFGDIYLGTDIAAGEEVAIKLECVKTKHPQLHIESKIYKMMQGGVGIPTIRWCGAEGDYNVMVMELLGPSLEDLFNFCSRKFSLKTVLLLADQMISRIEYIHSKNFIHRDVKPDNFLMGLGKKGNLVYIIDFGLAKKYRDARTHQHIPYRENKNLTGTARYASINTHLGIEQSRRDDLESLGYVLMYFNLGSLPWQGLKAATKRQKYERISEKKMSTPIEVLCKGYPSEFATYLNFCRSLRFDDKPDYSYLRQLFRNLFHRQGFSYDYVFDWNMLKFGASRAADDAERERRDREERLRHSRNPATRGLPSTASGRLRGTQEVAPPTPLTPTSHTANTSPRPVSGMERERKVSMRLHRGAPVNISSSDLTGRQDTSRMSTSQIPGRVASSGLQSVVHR
# [5] = target: MAP kinase-activated protein kinase 2 (Homo sapiens) (UniProt P49137); assay: Inhibition of MK2 (unknown origin) at 30 uM by microfluidic assay relative to control
# Chain of MAP kinase-activated protein kinase 2 (Homo sapiens) (P49137 whole entry, looked up): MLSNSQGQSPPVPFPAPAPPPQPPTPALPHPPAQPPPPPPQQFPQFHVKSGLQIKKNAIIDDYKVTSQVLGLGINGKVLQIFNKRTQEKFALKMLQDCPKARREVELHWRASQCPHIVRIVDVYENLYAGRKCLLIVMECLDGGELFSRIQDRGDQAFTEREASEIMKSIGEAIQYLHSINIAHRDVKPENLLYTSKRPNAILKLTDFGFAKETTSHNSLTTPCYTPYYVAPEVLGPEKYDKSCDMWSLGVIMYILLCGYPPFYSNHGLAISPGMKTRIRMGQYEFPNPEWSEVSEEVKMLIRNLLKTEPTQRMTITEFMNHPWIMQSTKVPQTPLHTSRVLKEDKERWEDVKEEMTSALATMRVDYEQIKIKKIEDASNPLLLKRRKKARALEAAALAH
# [6] = target: T1, Aurora kinase A (Homo sapiens) (UniProt O14965); assay: Inhibition of AurA (unknown origin) at 30 uM by microfluidic assay relative to control
# T1 sequence (whole entry): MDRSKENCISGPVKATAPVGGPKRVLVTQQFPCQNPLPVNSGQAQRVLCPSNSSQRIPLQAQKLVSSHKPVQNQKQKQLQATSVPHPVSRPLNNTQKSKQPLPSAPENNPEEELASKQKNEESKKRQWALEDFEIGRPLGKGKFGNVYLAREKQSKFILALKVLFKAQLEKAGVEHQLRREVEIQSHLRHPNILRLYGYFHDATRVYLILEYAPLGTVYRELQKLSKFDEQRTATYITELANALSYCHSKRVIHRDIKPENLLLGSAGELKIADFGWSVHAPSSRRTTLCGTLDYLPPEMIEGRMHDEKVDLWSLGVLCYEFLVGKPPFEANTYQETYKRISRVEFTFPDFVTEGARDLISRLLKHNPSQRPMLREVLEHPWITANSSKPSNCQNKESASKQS
# [7] = target: Proto-oncogene tyrosine-protein kinase Src (Homo sapiens) (UniProt P12931); assay: Inhibition of SRC (unknown origin) at 30 uM by microfluidic assay relative to control
# [8] = target: Ribosomal protein S6 kinase alpha-5 (Homo sapiens) (UniProt O75582); assay: Inhibition of MSK1 (unknown origin) at 30 uM by microfluidic assay relative to control
# [9] = target: T2, MAP kinase-activated protein kinase 5 (Homo sapiens) (UniProt Q8IW41); assay: Inhibition of MAPKAPK5 (unknown origin) at 30 uM by microfluidic assay relative to control
# T2 sequence (whole entry): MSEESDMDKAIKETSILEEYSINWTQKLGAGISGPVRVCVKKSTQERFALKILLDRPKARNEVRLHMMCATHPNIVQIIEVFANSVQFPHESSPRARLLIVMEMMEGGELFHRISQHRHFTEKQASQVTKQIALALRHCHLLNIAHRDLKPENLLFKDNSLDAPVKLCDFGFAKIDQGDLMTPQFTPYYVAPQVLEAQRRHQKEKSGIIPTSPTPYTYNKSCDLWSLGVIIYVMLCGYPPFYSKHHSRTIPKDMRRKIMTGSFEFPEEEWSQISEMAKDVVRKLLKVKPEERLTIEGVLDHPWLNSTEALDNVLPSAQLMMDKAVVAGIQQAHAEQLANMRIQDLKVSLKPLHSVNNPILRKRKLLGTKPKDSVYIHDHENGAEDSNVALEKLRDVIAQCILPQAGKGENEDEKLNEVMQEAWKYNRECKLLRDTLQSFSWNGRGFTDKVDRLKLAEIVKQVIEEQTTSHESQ
# [10] = target: Glycogen synthase kinase-3 (Homo sapiens) (UniProt P49840+P49841); assay: Inhibition of GSK3 (unknown origin) at 30 uM by microfluidic assay relative to control; type: protein assay
# [11] = target: Tyrosine-protein kinase Fyn (Homo sapiens) (UniProt P06241); assay: Inhibition of FYN (unknown origin) at 30 uM by microfluidic assay relative to control
# Chain of Tyrosine-protein kinase Fyn (Homo sapiens) (P06241 2-537 limits assumed): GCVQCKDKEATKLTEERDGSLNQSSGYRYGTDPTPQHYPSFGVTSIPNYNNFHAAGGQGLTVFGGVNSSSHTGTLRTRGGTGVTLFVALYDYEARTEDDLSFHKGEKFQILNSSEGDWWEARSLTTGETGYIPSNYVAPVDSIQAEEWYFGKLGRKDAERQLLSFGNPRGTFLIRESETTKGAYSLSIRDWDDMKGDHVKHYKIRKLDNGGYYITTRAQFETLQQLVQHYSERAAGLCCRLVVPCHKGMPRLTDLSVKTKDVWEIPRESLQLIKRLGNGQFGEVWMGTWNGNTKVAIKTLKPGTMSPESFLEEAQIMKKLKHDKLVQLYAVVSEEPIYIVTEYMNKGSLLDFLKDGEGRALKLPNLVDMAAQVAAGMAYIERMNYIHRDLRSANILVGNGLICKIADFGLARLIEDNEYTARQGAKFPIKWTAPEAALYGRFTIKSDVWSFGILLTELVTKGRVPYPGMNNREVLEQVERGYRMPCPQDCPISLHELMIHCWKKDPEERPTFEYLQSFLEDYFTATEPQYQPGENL
# [12] = target: Protein kinase C (PKC) (Homo sapiens) (UniProt O94806+P41743+P17252+P05129+Q05655+P05771+Q05513+Q02156+P24723+Q15139+Q04759); assay: Inhibition of PKC (unknown origin) at 30 uM by microfluidic assay relative to control
# [13] = target: T3, Serine/threonine-protein kinase Chk1 (Homo sapiens, UniProt O14757); assay: Inhibition of CHK1 (unknown origin) by microfluidic assay relative to control
# T3 sequence (O14757 whole entry): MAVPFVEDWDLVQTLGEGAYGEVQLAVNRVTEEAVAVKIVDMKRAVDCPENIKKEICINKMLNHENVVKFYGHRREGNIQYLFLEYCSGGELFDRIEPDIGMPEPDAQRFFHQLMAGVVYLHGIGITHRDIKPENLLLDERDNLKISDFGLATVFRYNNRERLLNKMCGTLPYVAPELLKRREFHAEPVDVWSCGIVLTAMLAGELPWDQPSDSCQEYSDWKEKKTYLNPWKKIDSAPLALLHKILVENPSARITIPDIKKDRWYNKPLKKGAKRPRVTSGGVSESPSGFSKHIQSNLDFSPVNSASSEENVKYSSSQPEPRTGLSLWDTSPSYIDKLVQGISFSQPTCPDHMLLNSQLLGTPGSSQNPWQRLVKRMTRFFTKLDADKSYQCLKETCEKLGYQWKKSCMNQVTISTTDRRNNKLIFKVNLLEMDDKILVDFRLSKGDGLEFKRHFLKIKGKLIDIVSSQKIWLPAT
# [14] = target: Vascular endothelial growth factor receptor 2 (Homo sapiens, UniProt P35968); assay: Inhibition of VEGFR-2 (unknown origin) by microfluidic assay relative to control
# [15] = target: RAC-alpha serine/threonine-protein kinase (Homo sapiens) (UniProt P31749); assay: Inhibition of AKT1 (unknown origin) at 30 uM by microfluidic assay relative to control
# [16] = target: T4, Serine/threonine-protein kinase Chk1 (Homo sapiens) (UniProt O14757); assay: Inhibition of CHK1 (unknown origin) at 30 uM by microfluidic assay relative to control
# T4 sequence (whole entry): T3 sequence (O14757 whole entry)
# [17] = target: Insulin receptor (Homo sapiens) (UniProt P06213); assay: Inhibition of InsR (unknown origin) at 30 uM by microfluidic assay relative to control
# Chain of Insulin receptor (Homo sapiens) (P06213 28-758 limits assumed): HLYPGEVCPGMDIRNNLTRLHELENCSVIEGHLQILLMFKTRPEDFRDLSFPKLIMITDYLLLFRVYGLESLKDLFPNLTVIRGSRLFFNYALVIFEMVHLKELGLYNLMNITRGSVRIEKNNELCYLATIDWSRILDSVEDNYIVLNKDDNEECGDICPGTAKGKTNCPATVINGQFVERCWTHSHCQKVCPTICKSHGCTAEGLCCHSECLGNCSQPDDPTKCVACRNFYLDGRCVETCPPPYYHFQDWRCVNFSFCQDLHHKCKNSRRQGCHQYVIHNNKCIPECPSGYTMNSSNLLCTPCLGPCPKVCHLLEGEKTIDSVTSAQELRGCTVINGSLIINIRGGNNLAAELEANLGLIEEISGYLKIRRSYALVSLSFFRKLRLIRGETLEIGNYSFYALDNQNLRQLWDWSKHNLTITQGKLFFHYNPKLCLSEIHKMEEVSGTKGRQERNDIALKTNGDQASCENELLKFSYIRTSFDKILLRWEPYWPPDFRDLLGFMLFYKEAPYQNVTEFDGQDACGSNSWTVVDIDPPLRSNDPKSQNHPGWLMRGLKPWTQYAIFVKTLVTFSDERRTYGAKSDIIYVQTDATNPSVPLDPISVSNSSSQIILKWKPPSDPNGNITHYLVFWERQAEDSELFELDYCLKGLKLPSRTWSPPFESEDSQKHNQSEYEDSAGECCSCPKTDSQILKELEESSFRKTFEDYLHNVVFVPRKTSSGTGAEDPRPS
# Chain of Insulin receptor (Homo sapiens) (P06213 763-1382 limits assumed): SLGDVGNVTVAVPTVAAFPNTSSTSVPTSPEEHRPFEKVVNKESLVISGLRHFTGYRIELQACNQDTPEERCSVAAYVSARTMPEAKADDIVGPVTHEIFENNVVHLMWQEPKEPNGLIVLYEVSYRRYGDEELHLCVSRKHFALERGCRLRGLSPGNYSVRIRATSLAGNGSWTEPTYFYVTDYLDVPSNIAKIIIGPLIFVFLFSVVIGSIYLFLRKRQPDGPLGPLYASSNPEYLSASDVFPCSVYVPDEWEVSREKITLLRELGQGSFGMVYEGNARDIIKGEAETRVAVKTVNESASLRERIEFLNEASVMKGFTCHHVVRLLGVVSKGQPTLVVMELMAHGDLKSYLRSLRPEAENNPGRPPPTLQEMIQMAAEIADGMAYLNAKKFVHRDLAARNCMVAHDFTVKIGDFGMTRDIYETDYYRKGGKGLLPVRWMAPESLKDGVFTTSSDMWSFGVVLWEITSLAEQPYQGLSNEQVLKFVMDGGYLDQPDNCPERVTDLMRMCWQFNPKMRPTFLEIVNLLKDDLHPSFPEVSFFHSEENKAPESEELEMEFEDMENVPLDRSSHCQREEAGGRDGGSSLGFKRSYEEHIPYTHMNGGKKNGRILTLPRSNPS
# [18] = target: RAC-beta serine/threonine-protein kinase (Homo sapiens) (UniProt P31751); assay: Inhibition of AKT2 (unknown origin) at 30 uM by microfluidic assay relative to control
# [19] = target: Tyrosine-protein kinase Lck (Homo sapiens) (UniProt P06239); assay: Inhibition of LCK (unknown origin) at 30 uM by microfluidic assay relative to control
# Chain of Tyrosine-protein kinase Lck (Homo sapiens) (P06239 2-509 limits assumed): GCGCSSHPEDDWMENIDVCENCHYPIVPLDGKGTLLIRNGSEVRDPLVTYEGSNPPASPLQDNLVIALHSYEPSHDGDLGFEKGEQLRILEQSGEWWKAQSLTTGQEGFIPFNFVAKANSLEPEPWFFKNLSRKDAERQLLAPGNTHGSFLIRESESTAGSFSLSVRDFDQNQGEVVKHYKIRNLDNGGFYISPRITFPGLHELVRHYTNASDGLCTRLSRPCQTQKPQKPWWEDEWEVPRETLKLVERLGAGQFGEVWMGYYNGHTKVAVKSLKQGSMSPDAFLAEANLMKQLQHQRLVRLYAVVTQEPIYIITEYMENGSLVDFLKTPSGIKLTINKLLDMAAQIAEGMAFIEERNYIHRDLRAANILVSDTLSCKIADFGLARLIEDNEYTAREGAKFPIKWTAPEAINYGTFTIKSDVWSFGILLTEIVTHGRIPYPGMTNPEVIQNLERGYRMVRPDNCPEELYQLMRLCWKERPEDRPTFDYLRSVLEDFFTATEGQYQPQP
# [20] = target: Mitogen-activated protein kinase 14 (Homo sapiens) (UniProt Q16539); assay: Inhibition of p38a (unknown origin) at 30 uM by microfluidic assay relative to control
# Chain of Mitogen-activated protein kinase 14 (Homo sapiens) (Q16539 whole entry): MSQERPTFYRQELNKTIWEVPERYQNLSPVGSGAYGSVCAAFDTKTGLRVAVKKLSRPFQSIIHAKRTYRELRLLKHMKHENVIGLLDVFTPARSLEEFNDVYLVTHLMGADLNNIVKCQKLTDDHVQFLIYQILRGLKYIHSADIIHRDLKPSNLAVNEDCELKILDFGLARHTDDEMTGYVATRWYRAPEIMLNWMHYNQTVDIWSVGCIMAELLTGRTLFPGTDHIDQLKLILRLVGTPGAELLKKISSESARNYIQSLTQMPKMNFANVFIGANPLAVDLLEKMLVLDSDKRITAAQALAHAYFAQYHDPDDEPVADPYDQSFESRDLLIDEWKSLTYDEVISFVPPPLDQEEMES
# [21] = target: Tyrosine-protein kinase Lyn (Homo sapiens) (UniProt P07948); assay: Inhibition of LYN (unknown origin) at 30 uM by microfluidic assay relative to control
# Chain of Tyrosine-protein kinase ABL1 (Homo sapiens) (P00519 whole entry): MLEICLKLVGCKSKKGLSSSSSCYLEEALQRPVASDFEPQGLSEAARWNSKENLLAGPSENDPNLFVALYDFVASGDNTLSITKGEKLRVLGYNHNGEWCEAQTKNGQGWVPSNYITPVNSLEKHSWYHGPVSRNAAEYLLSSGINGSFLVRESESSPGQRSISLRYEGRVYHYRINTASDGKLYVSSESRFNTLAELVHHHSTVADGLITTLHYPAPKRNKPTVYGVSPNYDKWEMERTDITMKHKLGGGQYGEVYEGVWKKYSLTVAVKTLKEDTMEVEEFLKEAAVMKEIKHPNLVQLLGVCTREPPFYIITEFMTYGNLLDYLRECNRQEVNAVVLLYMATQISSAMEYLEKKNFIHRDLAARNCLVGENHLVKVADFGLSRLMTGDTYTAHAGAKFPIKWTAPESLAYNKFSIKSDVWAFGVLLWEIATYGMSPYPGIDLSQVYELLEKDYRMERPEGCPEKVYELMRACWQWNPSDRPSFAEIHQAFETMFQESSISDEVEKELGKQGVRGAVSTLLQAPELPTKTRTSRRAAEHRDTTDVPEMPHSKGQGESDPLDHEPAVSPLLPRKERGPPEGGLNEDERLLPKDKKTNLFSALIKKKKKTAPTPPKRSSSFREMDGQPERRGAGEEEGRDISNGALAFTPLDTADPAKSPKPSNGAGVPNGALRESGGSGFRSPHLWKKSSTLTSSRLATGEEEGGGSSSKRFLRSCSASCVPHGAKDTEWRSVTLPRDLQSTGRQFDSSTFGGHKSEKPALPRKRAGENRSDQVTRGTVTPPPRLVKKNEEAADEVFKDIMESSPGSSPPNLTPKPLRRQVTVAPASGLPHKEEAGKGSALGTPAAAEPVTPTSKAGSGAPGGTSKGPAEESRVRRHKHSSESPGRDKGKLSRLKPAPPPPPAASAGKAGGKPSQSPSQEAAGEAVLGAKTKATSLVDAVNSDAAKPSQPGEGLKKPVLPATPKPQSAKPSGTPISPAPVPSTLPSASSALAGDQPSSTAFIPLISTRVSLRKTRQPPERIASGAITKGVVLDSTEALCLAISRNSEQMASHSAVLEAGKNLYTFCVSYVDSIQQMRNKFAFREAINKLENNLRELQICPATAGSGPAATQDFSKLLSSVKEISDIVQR
inhibition [1] [%],inhibition [2] [%],inhibition [3] [%],inhibition [4] [%],inhibition [5] [%],inhibition [6] [%],inhibition [7] [%],inhibition [8] [%],inhibition [9] [%],inhibition [10] [%],inhibition [11] [%],inhibition [12] [%],IC50 [13] [nM],IC50 [14] [nM],inhibition [15] [%],inhibition [16] [%],inhibition [17] [%],inhibition [18] [%],inhibition [19] [%],inhibition [20] [%],Structure (SMILES),other results
5,24,8,53,19,32,23,34,32,43,12,63,690,3450,90,84,12,56,32,2,Cc1[nH]c(-c2ccccc2)c(-c2ccccc2)c1-c1nnc(O)c2nn(-c3ccccc3)cc12,inhibition [21]: 5%
4,55,3,22,76,23,21,34,54,2,21,34,310,4560,13,96,32,56,32,21,Cc1[nH]c(-c2ccccc2)c(-c2ccccc2)c1C(=O)c1coc2c1cc(O)c1ccccc12,inhibition [21]: 34%
32,4,8,43,26,2,33,87,54,23,21,44,800,3450,45,80,33,86,25,13,Cc1[nH]c(-c2ccccc2)c(-c2ccccc2)c1C(=O)c1cn(-c2ccccc2)nc1C(=O)Nc1ccccc1,inhibition [21]: 24%
